Eleven compounds from patent US8940909B2, “Indicator platform” (Biosynth AG, priority 2009, dated 2015) can be followed below.

The subject of series [1] is beta-galactosidase positive Eschericha coli (NM1). As to the kind of experiment: IO staining of bacterial colonies on Nutrient Agar (color, fluorescence, localization, growth). On C: Color of colonies (strength): key: −: absent; +/−: weak; +: strong; ++: very strong. On F: Fluorescence of colonies (strength): key: −: absent; +/−: weak; +: strong; ++: very strong. On G: Growth of colonies: key: −: absent; +/−: weak; +: strong; ++: very strong. On L: Localization of stain on colonies: key: −: absent; +/−: weak; +: strong; ++: very strong. The series is classed as cell-based, E. coli. To be noted: 150 mg/l substrate and 100 mg/l IPTG; for C: Color of colonies (colour of stain) / C: Color of colonies (strength): 24 h on Nutrient Agar; for G: Growth of colonies / L: Localization of stain on colonies / F: Fluorescence of colonies (strength) / C: Color of colonies (strength): E. coli; for G: Growth of colonies / L: Localization of stain on colonies / F: Fluorescence of colonies (strength) / F: Fluorescence of colonies (colour): 24 h; for F: Fluorescence of colonies (strength) / F: Fluorescence of colonies (colour): 366 nm UV. On the procedure: (§1) Nutrient Agar (5 g/l peptone, 5 g/l NaCl, 2 g/l yeast extract, 1 g/l beef extract, 13 g/l agar, pH 7.4) was autoclaved and allowed to cool to 50° C. Then indicators were added to final concentrations of 150 mg/l (from a 20 mg/ml stock solution in DMF).
(§2) Optionally IPTG was added to 100 mg/l (from a 100 mg/ml stock solution in H2O) and plates were poured. Agar plates were inoculated with cultures of beta-galactosidase positive Eschericha coli (NM1) or beta-galactosidase negative Salmonella enteritidis (RKI 05/07992) (pre-grown on nutrient broth for 8-18 hours) and incubated at 37° C. Plates were inspected at 16, 20, 24 and 48 hours and pictures were recorded at 18, 24, and 48 hours with a Digistore 2 Image documentation system (CAMAG) under white light.
(§3) A considerable number of indicators molecules (Table IVa, IVb) and a selection of labile groups (Table IVc) were tested with various microbial species producing different biomarker enzymes (external stimuli, eS). The color of stains ranges from yellow to red.
(§4) Plating media from Example 10 were examined under 366 nm UV irradiation at 16, 20, 24 and 48 hours for fluorescence by means of Digistore 2 Image documentation system (CAMAG). Loops of bacterial cells, grown for 48 hours on Nutrient Agar plates containing 150 mg/l beta-D-galactosidase indicator and 100 mg/l IPTG, were directly streaked into wells of black clear bottom microtiter plates. Fluorescence scans were recorded on a Spectramax M5 (Molecular Devices).

Series [2] has as its system beta-galactosidase negative Salmonella enteritidis (RKI 05/07992). The series is classed as cell-based. To be noted: S. enteritidis (b-gal negative), 24 h, 150 mg/l substrate and 100 mg/l IPTG; for F: Fluorescence of colonies (strength): 366 nm UV. On the procedure: as §1, §2, §3, §4; on all read-outs here: key: −: absent; +/−: weak; +: strong; ++: very strong

Regarding `CC(=O)c1ccccc1-n1cc(O[C@@H]2O[C@H](CO)[C@H](O)[C@H](O)[C@H]2O)c2c(Cl)c(Br)ccc21` [Indicator I17a, 1-(2-Acetylphenyl)-5-bromo-4-chloro-1H-indol-3-yl-beta-D-galactopyranoside], in series [1], the “C: Color of colonies (colour of stain)” value was “yellow-orange”, the “G: Growth of colonies” value is recorded as “+”, the “L: Localization of stain on colonies” value is “+” and the “F: Fluorescence of colonies (strength)” value is “−”. Further, the “C: Color of colonies (strength)” value in series [1] is on record as “+”. Moreover, in series [2], the “C: Color of colonies (strength)” value is on record as “−” and the “F: Fluorescence of colonies (strength)” value is reported as “−”.
For `O=C(c1ccccc1)c1ccccc1-n1cc(O[C@@H]2O[C@H](CO)[C@H](O)[C@H](O)[C@H]2O)c2c(Cl)cccc21` [Indicator I20a, 1-(2-Benzoylphenyl)-4-chloro-1H-indol-3-yl-beta-D-galactopyranoside], in series [1], the “F: Fluorescence of colonies (colour)” value was “orange”, the “C: Color of colonies (colour of stain)” value was “orange”, the “G: Growth of colonies” value is given as “+” and the “L: Localization of stain on colonies” value is listed as “cryst”. In addition, in series [1], the “F: Fluorescence of colonies (strength)” value is listed as “+/−” and the “C: Color of colonies (strength)” value is “+/−”. In series [2], the “C: Color of colonies (strength)” value is “−” and the “F: Fluorescence of colonies (strength)” value is “−”.
As for `COc1ccc(C(=O)c2ccccc2-n2cc(O[C@@H]3O[C@H](CO)[C@H](O)[C@H](O)[C@H]3O)c3c(Cl)cccc32)c(OC)c1` [Indicator I26a, 4-Chloro-1-[2-(2,4-dimethoxybenzoyl)phenyl]-1H-indol-3-yl-beta-D-galactopyranoside], in series [1], the “F: Fluorescence of colonies (colour)” value is reported as “orange”, the “C: Color of colonies (colour of stain)” value is “yellow-orange”, the “G: Growth of colonies” value was “+” and the “L: Localization of stain on colonies” value is “+”. In addition, in series [1], the “F: Fluorescence of colonies (strength)” value is listed as “+/−” and the “C: Color of colonies (strength)” value is “+”. In addition, in series [2], the “C: Color of colonies (strength)” value is recorded as “−” and the “F: Fluorescence of colonies (strength)” value was “−”.
Consider `COc1ccc(C(=O)c2ccccc2)c(-n2cc(O[C@@H]3O[C@H](CO)[C@H](O)[C@H](O)[C@H]3O)c3ccc(Cl)cc32)c1` [Indicator I24a, 1-(2-Benzoyl-5-methoxyphenyl)-6-chloro-1H-indol-3-yl-beta-D-galactopyranoside], for which, in series [1], the “F: Fluorescence of colonies (colour)” value is given as “yellow-green”, the “C: Color of colonies (colour of stain)” value is “dark yellow”, the “G: Growth of colonies” value is reported as “+” and the “L: Localization of stain on colonies” value is “+/−”. In addition, in series [1], the “F: Fluorescence of colonies (strength)” value is listed as “+” and the “C: Color of colonies (strength)” value is “+”. In addition, in series [2], the “C: Color of colonies (strength)” value is “−” and the “F: Fluorescence of colonies (strength)” value was “−”.
Turning to `O=Cc1ccccc1-n1cc(O[C@@H]2O[C@H](CO)[C@H](O)[C@H](O)[C@H]2O)c2ccccc21` [Indicator I13a, 1-(2-Formylphenyl)-1H-indol-3-yl-beta-D-galactopyranoside], in series [1], the “C: Color of colonies (colour of stain)” value is recorded as “cream-orange”, the “G: Growth of colonies” value was “+”, the “L: Localization of stain on colonies” value is recorded as “+” and the “F: Fluorescence of colonies (strength)” value is listed as “−”. In addition, the “C: Color of colonies (strength)” value in series [1] was “+/−”. For the same compound, in series [2], the “C: Color of colonies (strength)” value is “−” and the “F: Fluorescence of colonies (strength)” value was “−”.
Turning to `CC(=O)c1ccccc1-n1cc(O[C@@H]2O[C@H](CO)[C@H](O)[C@H](O)[C@H]2O)c2ccccc21` [Indicator I14a, 1-(2-Acetylphenyl)-1H-indol-3-yl-beta-D-galactopyranoside], in series [1], the “C: Color of colonies (colour of stain)” value was “light yellow”, the “G: Growth of colonies” value was “+”, the “L: Localization of stain on colonies” value is on record as “+” and the “F: Fluorescence of colonies (strength)” value was “−”. Further, the “C: Color of colonies (strength)” value in series [1] was “+”. Further, in series [2], the “C: Color of colonies (strength)” value was “−” and the “F: Fluorescence of colonies (strength)” value is “−”.
As for `O=C(O)c1ccc(C(=O)c2ccccc2-n2cc(O[C@@H]3O[C@H](CO)[C@H](O)[C@H](O)[C@H]3O)c3ccc(Cl)cc32)o1` [Indicator I29a, 1-[2-(5-Carboxylfuranoyl)phenyl]-6-chloro-1H-indol-3-yl-beta-D-galactopyranoside], in series [1], the “C: Color of colonies (colour of stain)” value is “red”, the “G: Growth of colonies” value was “+”, the “L: Localization of stain on colonies” value was “−” and the “F: Fluorescence of colonies (strength)” value is “−”. Further, the “C: Color of colonies (strength)” value in series [1] was “+”. In addition, in series [2], the “C: Color of colonies (strength)” value is on record as “−” and the “F: Fluorescence of colonies (strength)” value was “−”.
`COc1ccc(C(C)=O)c(-n2cc(O[C@@H]3O[C@H](CO)[C@H](O)[C@H](O)[C@H]3O)c3ccc(Cl)cc32)c1` [Indicator I18a, 1-(2-Acetyl-5-methoxyphenyl)-6-chloro-1H-indol-3-yl-beta-D-galactopyranoside]: in series [1], the “F: Fluorescence of colonies (colour)” value is recorded as “green”, the “C: Color of colonies (colour of stain)” value is given as “light yellow”, the “G: Growth of colonies” value is listed as “+” and the “L: Localization of stain on colonies” value was “+/−”. In series [1], the “F: Fluorescence of colonies (strength)” value is given as “+/−” and the “C: Color of colonies (strength)” value is given as “+”. Besides, in series [2], the “C: Color of colonies (strength)” value is listed as “−” and the “F: Fluorescence of colonies (strength)” value is “−”.
On to `O=C(c1ccccc1)c1ccccc1-n1cc(O[C@@H]2O[C@H](CO)[C@H](O)[C@H](O)[C@H]2O)c2ccccc21` [Indicator I19a, 1-(2-Benzoylphenyl)-1H-indol-3-yl-beta-D-galactopyranoside], for which, in series [1], the “F: Fluorescence of colonies (colour)” value was “yellow”, the “C: Color of colonies (colour of stain)” value is “yellow-orange”, the “G: Growth of colonies” value is reported as “+” and the “L: Localization of stain on colonies” value is “+”. Further, in series [1], the “F: Fluorescence of colonies (strength)” value was “+” and the “C: Color of colonies (strength)” value was “+”. Moreover, in series [2], the “C: Color of colonies (strength)” value is reported as “−” and the “F: Fluorescence of colonies (strength)” value was “−”.
Regarding `O=C(c1ccco1)c1ccccc1-n1cc(O[C@@H]2O[C@H](CO)[C@H](O)[C@H](O)[C@H]2O)c2ccc(Cl)cc21` [Indicator I30a, 6-Chloro-1-(2-furanoylphenyl)-1H-indol-3-yl-beta-D-galactopyranoside], in series [1], the “F: Fluorescence of colonies (colour)” value was “orange-red”, the “C: Color of colonies (colour of stain)” value is listed as “dark orange”, the “G: Growth of colonies” value is listed as “+” and the “L: Localization of stain on colonies” value was “+/−”. In series [1], the “F: Fluorescence of colonies (strength)” value is recorded as “+/−” and the “C: Color of colonies (strength)” value was “++”. In series [2], the “C: Color of colonies (strength)” value is “−” and the “F: Fluorescence of colonies (strength)” value is listed as “−”.
Take `O=C(c1ccccc1)c1ccc(Cl)cc1-n1cc(O[C@@H]2O[C@H](CO)[C@H](O)[C@H](O)[C@H]2O)c2ccc(Cl)cc21` [Indicator I23a, 1-(2-Benzoyl-5-chlorophenyl)-6-chloro-1H-indol-3-yl-beta-D-galactopyranoside]: in series [1], the “F: Fluorescence of colonies (colour)” value was “green-yellow”, the “C: Color of colonies (colour of stain)” value is on record as “yellow”, the “G: Growth of colonies” value is reported as “+” and the “L: Localization of stain on colonies” value was “+”. Further, in series [1], the “F: Fluorescence of colonies (strength)” value was “+” and the “C: Color of colonies (strength)” value is “+”.
